The source of these data is publication PMC5971037, “Synthesis and evaluation of antimicrobial, antitubercular and anticancer activities of 2-(1-benzoyl-1H-benzo[d]imidazol-2-ylthio)-N-substituted acetamides” (Chemistry Central Journal, 2018).

Series [1] relates to B. subtilis. The experiment in a line: Tube dilution MIC. Conditions: Bacillus subtilis, 24 h, read-out: MIC B. subtilis.
Series [2] deals with MCF7 (human breast cancer) cell line. The experiment in a line: Sulforhodamine-B (SRB) cytotoxicity assay. The series is classed as cell-based.
The test system of series [3] is M. tuberculosis H37Rv. Briefly: MIC by microplate alamar blue assay. Conditions: Mycobacterium tuberculosis, NA = no activity, read-out: MIC against M. tuberculosis H37Rv. The series is classed as cell-based.
Series [4] concerns C. albicans. Briefly: MFC by subculturing. The series is classed as cell-based. Here is the method: (§1) The minimum bactericidal concentration (MBC) and minimum fungicidal concentration (MFC) of the synthesized benzimidazole derivatives was determined by subculturing 100 µl of culture from each tube that remained clear in MIC determination onto sterilized petri-plates containing fresh agar medium. The petri-plates were incubated and analyzed for microbial growth visually.

For series [5], the system named is A. niger. Briefly: MFC by subculturing. The class given is cell-based. As for the experimental part: as §1
In series [6] the test system is M. tuberculosis H37Rv. The experiment in a line: Minimum lethal concentration (MLC). The class given is cell-based. Conditions: Mycobacterium tuberculosis, NA = no activity, read-out: MLC against M. tuberculosis H37Rv.
The test system of series [7] is M. tuberculosis H37Rv (NCFT/TB/537). Briefly: Well diffusion susceptibility test (zone of inhibition). The class given is cell-based. Conditions: Mycobacterium tuberculosis, 672 h, read-out: Diameter of zone of inhibition against H37Rv (NCFT/TB/537), wells of 8 mm, 50 µg/ml test compound, 25 µg/ml standard drug, 4 weeks, NA = no activity.
Series [8] concerns S. aureus. Briefly: Tube dilution MIC. Conditions: Staphylococcus aureus, 24 h, read-out: MIC S. aureus.
For series [9], the system named is E. coli. Briefly: Tube dilution MIC. Particulars: Escherichia coli, 24 h, read-out: MIC E. coli.
Series [10] relates to Gram positive as well as Gram negative bacterial species. The experiment in a line: Tube dilution MIC, bacteria overall. The class given is cell-based.
Series [11] concerns HCT116 (human colorectal) cell line. Briefly: Sulforhodamine-B (SRB) cytotoxicity assay. The series is classed as cell-based.
For series [12], the system named is A. niger. The experiment in a line: microbe, parasite or virus in culture. Particulars: Aspergillus niger, 168 h, read-out: MIC A. niger.
Series [13] relates to B. cereus. Briefly: Tube dilution MIC. Conditions: Bacillus cereus, 24 h, read-out: MIC B. cereus.
Series [14] has as its system C. albicans. Briefly: microbe, parasite or virus in culture. Particulars: Candida albicans, 48 h, read-out: MIC C. albicans.
The subject of series [15] is E. coli. Briefly: MBC by subculturing. The series is classed as cell-based. Conditions: Escherichia coli. Here is the method: as §1
Series [16] concerns B. cereus. Briefly: MBC by subculturing. The series is classed as cell-based. As for the experimental part: as §1
Series [17] deals with S. typhi. Briefly: MBC by subculturing. The series is classed as cell-based. Particulars: Salmonella enterica, read-out: MBC S. typhi. As for the experimental part:
as §1

Series [18] relates to S. aureus. Briefly: MBC by subculturing. The class given is cell-based. Particulars: Staphylococcus aureus. Here is the method: as §1
In series [19] the test system is B. subtilis. Briefly: MBC by subculturing. The class given is cell-based. As for the experimental part: as §1
Series [20] concerns S. typhi. The experiment in a line: Tube dilution MIC. The class given is cell-based. Particulars: Salmonella enterica, 24 h, read-out: MIC S. typhi.
Series [21] can be described thus: In vivo LD50, ED50 and toxic dose in mice models. Particulars: mouse, dose that killed 50% of the mice population within the group. Here is the method:
The LD50 and ED50 were determined for the active compounds in mice models infected with Mycobacterium H37Rv (Table 4). […] Thus, ED50 of 1.34 mg/kg was considered safe for each of the compounds. It was observed that this dose was effective and safe for mice in different groups before infecting the mice models with specific TB bacteria as no mortality of any single animal was recorded.
The LD50 (lethal dose) and ED50 (optimum/effective dose) doses were determined for the active compounds in mice models infected with Mycobacterium H37Rv via ethical permission no., NCFT/EC/16/2313 assigned to Collaborative Research Group (CRG), NCFT, New Delhi, India.

Series [22] concerns the target mycobacterial isocitrate lyase (Mycobacterium tuberculosis, UniProt P9WKK7). Briefly: Mycobacterial isocitrate lyase (ICL) assay. The series is classed as biochemical, M. tuberculosis H37Rv. Conditions: read-out: Percent inhibition of enzyme, M. ICL activity. Here is the method:
The compounds found potent in in vivo evaluation were assayed for inhibition of mycobacterial enzymes viz., isocitrate lyase, pantothenate synthetase and chorismate mutase.
Isocitrate lyase activity was assayed according to the protocol reported by Dixon and Kornberg (glyoxylate phenyl hydrazone formation) at 10 μM of the compounds.

The mark [23] stands for this setting: Candida albicans, read-out: MFC C. albicans.
[24] abbreviates: Aspergillus niger, read-out: MFC A. niger.
[25] abbreviates: Bacillus cereus, read-out: MBC B. cereus.
Setting [26] is: Bacillus subtilis, read-out: MBC B. subtilis.

SMILES strings stand for the structures. Converted amounts (≈) assume the structure as drawn. Where two headings read alike, the source gives them in different places.

mycobacterial isocitrate lyase, sequence (P9WKK7 whole entry): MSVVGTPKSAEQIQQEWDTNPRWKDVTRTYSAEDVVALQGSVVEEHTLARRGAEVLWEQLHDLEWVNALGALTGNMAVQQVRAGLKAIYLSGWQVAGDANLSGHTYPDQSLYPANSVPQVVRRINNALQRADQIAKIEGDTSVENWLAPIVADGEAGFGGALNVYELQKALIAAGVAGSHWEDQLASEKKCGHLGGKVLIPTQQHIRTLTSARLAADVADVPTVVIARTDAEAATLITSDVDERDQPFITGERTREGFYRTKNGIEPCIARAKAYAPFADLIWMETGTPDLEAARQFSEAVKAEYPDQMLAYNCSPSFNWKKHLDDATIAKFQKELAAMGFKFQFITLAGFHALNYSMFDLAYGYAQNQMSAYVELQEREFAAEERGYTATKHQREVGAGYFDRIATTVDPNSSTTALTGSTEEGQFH

For the molecule `O=C(CSc1nc2ccccc2n1C(=O)c1ccccc1)Nc1ccc(Cl)cc1[N+](=O)[O-]` [Compound 11, 2-(1-Benzoyl-1H-benzo[d]imidazol-2-ylthio)-N-(4-chloro-2-nitrophenyl)acetamide], the MIC in the series on B. subtilis [1] was determined as 27 µM (≈ 12.6 µg/mL); in the series with M. tuberculosis H37Rv [3], 15 µg/mL (≈ 32.1 µM); with S. aureus [8], 27 µM (≈ 12.6 µg/mL); in the series with E. coli [9], 27 µM (≈ 12.6 µg/mL); with A. niger [12] it was 27 µM (≈ 12.6 µg/mL); in the series on B. cereus [13], 27 µM (≈ 12.6 µg/mL). Also, the MIC came to 13 µM (≈ 6.07 µg/mL) in the series on C. albicans [14] and 27 µM (≈ 12.6 µg/mL) with S. typhi [20]. For the same molecule, the half-inhibitory concentration (IC50) was 161 µM in [2] (SRB assay, MCF7 cell line, read-out: IC50 MCF7) and 23.6 µM in series [11] (HCT-116, SRB assay, HCT116 cell line, read-out: IC50 HCT116). For the same molecule, the MFC in the series on C. albicans [4] (Candida albicans; read-out: MFC C. albicans) and with A. niger [5] (Aspergillus niger; read-out: MFC A. niger) was greater than 50 µg/mL throughout. For the same molecule, the MBC was 28 µg/mL (≈ 60 µM) with M. tuberculosis H37Rv [6]; 50 µg/mL (≈ 107 µM) in the series on E. coli [15]; greater than 50 µg/mL in the series with B. cereus [16] (Bacillus cereus; read-out: MBC B. cereus); 50 µg/mL (≈ 107 µM) in the series on S. typhi [17]; 50 µg/mL (≈ 107 µM) against S. aureus [18]; 50 µg/mL (≈ 107 µM) in the series with B. subtilis [19] (Bacillus subtilis; read-out: MBC B. subtilis). The zone of inhibition at 50 µg/mL in series [7] was 10 mm. Further, the “MIC against Gram positive as well as Gram negative bacterial species” value in series [10] worked out at 0.027 µM/ml.

For the molecule `Cc1ccc(NC(=O)CSc2nc3ccccc3n2C(=O)c2ccccc2)cc1` [Compound 12, 2-(1-Benzoyl-1H-benzo[d]imidazol-2-ylthio)-N-p-tolylacetamide], the MIC in the series on B. subtilis [1] is 31 µM (≈ 12.4 µg/mL); in the series with M. tuberculosis H37Rv [3], 12.5 µg/mL (≈ 31.1 µM); in the series with S. aureus [8], 31 µM (≈ 12.4 µg/mL); in the series with E. coli [9], 31 µM (≈ 12.4 µg/mL); in the series with A. niger [12] it was 31 µM (≈ 12.4 µg/mL); in the series with B. cereus [13] it was 31 µM (≈ 12.4 µg/mL). Further, the MIC in the series with C. albicans [14] is 16 µM (≈ 6.42 µg/mL); in the series on S. typhi [20] it was 31 µM (≈ 12.4 µg/mL). The 50% inhibitory concentration (IC50) in series [2] (MCF7, read-out: IC50 MCF7) is 124 µM; in series [11] (HCT-116, read-out: IC50 HCT116), 39.8 µM. Moreover, the MFC in the series on C. albicans [4] (setting [23]) is 25 µg/mL (≈ 62.3 µM); in the series with A. niger [5] (setting [24]), greater than 50 µg/mL. Besides, the MBC with M. tuberculosis H37Rv [6] was 25 µg/mL (≈ 62.3 µM); in the series on E. coli [15] it was 50 µg/mL (≈ 125 µM); in the series with B. cereus [16] (setting [25]) it was greater than 50 µg/mL; with S. typhi [17] it was 50 µg/mL (≈ 125 µM); with S. aureus [18], greater than 50 µg/mL; in the series with B. subtilis [19] (setting [26]), greater than 50 µg/mL. Besides, in series [7], the zone of inhibition at 50 µg/mL was greater than 20 mm. In series [21], this molecule returned a median lethal dose (LD50) of 1.85 mg/kg. In addition, the inhibition at 10 µM in series [22] is 43.5%.

For the molecule `Cc1cccc(C)c1NC(=O)CSc1nc2ccccc2n1C(=O)c1ccccc1` [Compound 13, 2-(1-Benzoyl-1H-benzo[d]imidazol-2-ylthio)-N-(2,6-dimethylphenyl)acetamide], the MIC in the series on B. subtilis [1] was determined as 30 µM (≈ 12.5 µg/mL); with M. tuberculosis H37Rv [3] it was 12.5 µg/mL (≈ 30.1 µM); with S. aureus [8] it was 30 µM (≈ 12.5 µg/mL); in the series with E. coli [9], 30 µM (≈ 12.5 µg/mL); with A. niger [12], 30 µM (≈ 12.5 µg/mL); with B. cereus [13] it was 30 µM (≈ 12.5 µg/mL). In addition, the MIC was 15 µM (≈ 6.23 µg/mL) in the series on C. albicans [14] and 30 µM (≈ 12.5 µg/mL) in the series with S. typhi [20]. For the same molecule, the concentration for half-maximal inhibition (IC50) in series [2] (MCF7, read-out: IC50 MCF7) worked out at 135 µM; in [11] (HCT-116, read-out: IC50 HCT116), 96.3 µM. For the same molecule, the minimal fungicidal concentration (MFC) with C. albicans [4] (setting [23]) was 25 µg/mL (≈ 60.2 µM); in the series with A. niger [5] (setting [24]), greater than 50 µg/mL. For the same molecule, the MBC in the series with M. tuberculosis H37Rv [6] is 25 µg/mL (≈ 60.2 µM); in the series on E. coli [15], 50 µg/mL (≈ 120 µM); in the series on B. cereus [16] (setting [25]), greater than 50 µg/mL; in the series with S. typhi [17], greater than 50 µg/mL; in the series with S. aureus [18] it was 50 µg/mL (≈ 120 µM); in the series with B. subtilis [19] (setting [26]), greater than 50 µg/mL. In addition, in series [7], the zone of inhibition at 50 µg/mL is greater than 20 mm. Also, the LD50 in [21] turned out to be 2.14 mg/kg. Moreover, the inhibition at 10 µM in series [22] came out at 56.5%.

Turning to `O=C(CSc1nc2ccccc2n1C(=O)c1ccccc1)Nc1ccc(Cl)cc1` [Compound 15, 2-(1-Benzoyl-1H-benzo[d]imidazol-2-ylthio)-N-(4-chlorophenyl)acetamide], the MIC stood at 30 µM (≈ 12.7 µg/mL) in the series with B. subtilis [1]; 12.5 µg/mL (≈ 29.6 µM) in the series on M. tuberculosis H37Rv [3]; 30 µM (≈ 12.7 µg/mL) in the series with S. aureus [8]; 30 µM (≈ 12.7 µg/mL) in the series on E. coli [9]; 30 µM (≈ 12.7 µg/mL) with A. niger [12]; 30 µM (≈ 12.7 µg/mL) with B. cereus [13]. Moreover, the MIC in the series with C. albicans [14] was determined as 30 µM (≈ 12.7 µg/mL); in the series on S. typhi [20], 59 µM (≈ 24.9 µg/mL). Moreover, the half-inhibitory concentration (IC50) turned out to be 95 µM in [2] (MCF7, read-out: IC50 MCF7) and 59.4 µM in series [11] (HCT-116, read-out: IC50 HCT116). Further, the minimum fungicidal concentration (MFC) with C. albicans [4] (setting [23]) and in the series on A. niger [5] (setting [24]) was greater than 50 µg/mL throughout. In addition, the MBC with M. tuberculosis H37Rv [6] is 25 µg/mL (≈ 59.3 µM); with E. coli [15] it was 50 µg/mL (≈ 119 µM); in the series on B. cereus [16] (setting [25]), greater than 50 µg/mL; in the series with S. typhi [17] it was greater than 50 µg/mL; against S. aureus [18], 50 µg/mL (≈ 119 µM); with B. subtilis [19] (setting [26]), greater than 50 µg/mL. The zone of inhibition at 50 µg/mL in [7] is greater than 20 mm. The same molecule returned an LD50 in series [21] of 2.67 mg/kg. In [22], the inhibition at 10 µM turned out to be 61.6%.
